Measured values reported in PubChem BioAssay (NCI).
Several values for one entry are separate records, joined by “and”; a condition that tells them apart may be missing. Equal entries are not always repeated.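 All cell lines were grown in 96-well plates and treated with compound for 48 hours. Here, GI50 denotes the concentration required for 50% inhibition of growth. TGI is the concentration that stops growth completely.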

How the values were obtained:
Experiment in all cases: DTP human tumour cell line panel, 48 h
CCRF-CEM leukemia = test system: CCRF-CEM leukemia
HOP-92 NSCLC = test system: HOP-92 NSCLC
LOX IMVI melanoma = test system: LOX IMVI melanoma
MDA-MB-435 = test system: MDA-MB-435
NCI-H460 lung = test system: NCI-H460 lung
NCI-H522 lung = test system: NCI-H522 lung
SF-539 CNS = test system: SF-539 CNS
UO-31 renal = test system: UO-31 renal
MOLT-4 leukemia = test system: MOLT-4 leukemia
HOP-62 NSCLC = test system: HOP-62 NSCLC

c1ccc(N2N=C(c3cccc(Nc4ccncc4)c3)CC2c2ccc3c(c2)OCO3)cc1 (stereo unspecified) showed a GI50 (CCRF-CEM leukemia) of 1.78 µM, a TGI (CCRF-CEM leukemia) of 7.85 µM and a GI50 (HOP-92 NSCLC) of 1.1 µM. It also gave a TGI (HOP-92 NSCLC) of 2.47 µM, a GI50 (LOX IMVI melanoma) of 1.69 µM and a TGI (LOX IMVI melanoma) of 3.08 µM. It also gave a GI50 (MDA-MB-435) of 0.383 µM, a TGI (MDA-MB-435) of 1.47 µM and a GI50 (NCI-H460 lung) of 1.71 µM. For the same molecule, the TGI (NCI-H460 lung) was 3.18 µM, the GI50 (NCI-H522 lung) was 1.61 µM and the TGI (NCI-H522 lung) was 3.48 µM. For the same molecule, the GI50 (SF-539 CNS) was 1.7 µM, the TGI (SF-539 CNS) was 3.18 µM and the GI50 (UO-31 renal) was 1.4 µM. For the same molecule, the TGI (UO-31 renal) was 2.84 µM.
Work on CCOC1=NC(C(F)(F)F)(C(F)(F)F)N=C(N2CCOCC2)O1 yielded a TGI (CCRF-CEM leukemia) greater than 100 µM, a TGI (HOP-92 NSCLC) greater than 100 µM and a TGI (LOX IMVI melanoma) greater than 100 µM. The TGI (MDA-MB-435) was greater than 100 µM, the TGI (MOLT-4 leukemia) was greater than 100 µM and the TGI (NCI-H460 lung) was greater than 100 µM. It also gave a TGI (NCI-H522 lung) greater than 100 µM, a TGI (SF-539 CNS) greater than 100 µM and a TGI (UO-31 renal) greater than 100 µM.
COc1nc2ccc(COc3ccc(C(=O)NC(CCC(=O)O)C(=O)O)cc3)cc2nc1OC (stereo unspecified) gave a TGI (CCRF-CEM leukemia) greater than 10 µM, a TGI (HOP-62 NSCLC) greater than 10 µM and a TGI (HOP-92 NSCLC) greater than 10 µM. It also gave a TGI (LOX IMVI melanoma) greater than 10 µM, a TGI (MDA-MB-435) greater than 10 µM and a TGI (MOLT-4 leukemia) greater than 10 µM. It also gave a TGI (NCI-H460 lung) greater than 10 µM, a TGI (NCI-H522 lung) greater than 10 µM and a TGI (SF-539 CNS) greater than 10 µM. The TGI (UO-31 renal) was greater than 10 µM.
In the case of COc1cc([C@@H]2c3cc4c(c(O)c3C[C@H]3COC(=O)[C@@H]32)OCO4)cc(OC)c1OC, the GI50 (CCRF-CEM leukemia) was 0.374 µM, the TGI (CCRF-CEM leukemia) was 94.3 µM and > 241 µM and > 100 µM and the GI50 (HOP-62 NSCLC) was 0.249 µM. The TGI (HOP-62 NSCLC) was 57.9 µM and 218 µM and > 100 µM, the GI50 (HOP-92 NSCLC) was 8.17 µM and the GI50 (LOX IMVI melanoma) was 0.334 µM. It also gave a GI50 (MDA-MB-435) of 0.000192 µM, a TGI (MDA-MB-435) of 0.000802 µM and a GI50 (MOLT-4 leukemia) of 0.539 µM. For the same molecule, the GI50 (NCI-H460 lung) was 0.0564 µM, the GI50 (NCI-H522 lung) was 0.393 µM and the GI50 (SF-539 CNS) was 0.065 µM. For the same molecule, the GI50 (UO-31 renal) was 0.466 µM and the TGI (UO-31 renal) was 56.2 µM and 120 µM and > 100 µM.
Work on O=C1C(Cl)N(c2cccc(Cl)c2)C1c1c[nH]c2ccccc12 (stereo unspecified) yielded a TGI (CCRF-CEM leukemia) greater than 100 µM, a TGI (HOP-62 NSCLC) greater than 100 µM and a TGI (HOP-92 NSCLC) greater than 100 µM. It also gave a TGI (MOLT-4 leukemia) greater than 100 µM, a TGI (NCI-H460 lung) greater than 100 µM and a TGI (NCI-H522 lung) greater than 100 µM. The TGI (SF-539 CNS) was greater than 100 µM and the TGI (UO-31 renal) was greater than 100 µM.
Work on Nc1ccccc1Nc1ccccc1C(=O)[O-].Nc1ccccc1Nc1ccccc1C(=O)[O-].[Zn+2] yielded a TGI (CCRF-CEM leukemia) greater than 100 µM, a TGI (HOP-62 NSCLC) greater than 100 µM and a TGI (MOLT-4 leukemia) greater than 100 µM. For the same molecule, the TGI (NCI-H460 lung) was greater than 100 µM, the TGI (NCI-H522 lung) was 44.4 µM and the TGI (SF-539 CNS) was greater than 100 µM. It also gave a TGI (UO-31 renal) greater than 100 µM.
Molecule Cc1nc2c(c(=O)[nH]1)S/C(=C(/C#N)c1nc3ccccc3[nH]1)N2c1ccccc1 has a TGI (CCRF-CEM leukemia) greater than 100 µM, a TGI (HOP-62 NSCLC) greater than 100 µM and a TGI (HOP-92 NSCLC) greater than 100 µM. It also gave a TGI (MOLT-4 leukemia) greater than 100 µM, a TGI (NCI-H460 lung) greater than 100 µM and a TGI (NCI-H522 lung) greater than 100 µM. The TGI (SF-539 CNS) was greater than 100 µM and the TGI (UO-31 renal) was greater than 100 µM.
COc1ccc2c(c1O)-c1cc(O)cc3c1[C@@H](C2)N(C)CC3 gave a TGI (CCRF-CEM leukemia) of 262 µM, a TGI (HOP-62 NSCLC) of 106 µM and a TGI (HOP-92 NSCLC) of 73.6 µM. It also gave a TGI (LOX IMVI melanoma) of 142 µM, a TGI (MOLT-4 leukemia) of 211 µM and a TGI (NCI-H460 lung) of 150 µM. It also gave a TGI (NCI-H522 lung) of 255 µM, a TGI (SF-539 CNS) of 153 µM and a TGI (UO-31 renal) of 103 µM.
For C=C(C)C(=O)O[C@H]1CC2=C[C@@H](C[C@@]3(C)O[C@@H]3[C@H]3OC(=O)C(=C)[C@@H]31)OC2=O, the GI50 (CCRF-CEM leukemia) was 1.18 µM, the TGI (CCRF-CEM leukemia) was 300 µM and the TGI (HOP-62 NSCLC) was 98.9 µM. For the same molecule, the TGI (HOP-92 NSCLC) was 2.78 µM, the TGI (LOX IMVI melanoma) was 1.29 µM and the GI50 (MOLT-4 leukemia) was 0.789 µM. For the same molecule, the TGI (MOLT-4 leukemia) was 12.8 µM, the TGI (NCI-H460 lung) was 10.6 µM and the TGI (NCI-H522 lung) was 1.71 µM. The TGI (SF-539 CNS) was 8.21 µM and the TGI (UO-31 renal) was 13.8 µM.
Work on C(/C=C/c1ccccc1)=Nc1ccc2c(c1)Cc1ccccc1-2 yielded a TGI (CCRF-CEM leukemia) greater than 100 µM, a TGI (HOP-62 NSCLC) greater than 100 µM and a TGI (HOP-92 NSCLC) greater than 100 µM. For the same molecule, the TGI (LOX IMVI melanoma) was 63 µM, the TGI (MDA-MB-435) was greater than 100 µM and the TGI (MOLT-4 leukemia) was 95 µM. It also gave a TGI (NCI-H460 lung) greater than 100 µM, a TGI (NCI-H522 lung) greater than 100 µM and a TGI (UO-31 renal) greater than 100 µM.
Work on COc1cc(C2S/C(=C/c3ccccc3)C(=O)N2c2ccc(NC(C)=O)cc2)cc(OC)c1OC (stereo unspecified) yielded a TGI (CCRF-CEM leukemia) of 20.4 µM, a TGI (HOP-62 NSCLC) greater than 100 µM and a TGI (HOP-92 NSCLC) of 83.6 µM. It also gave a TGI (LOX IMVI melanoma) of 63.7 µM, a TGI (MDA-MB-435) of 62.4 µM and a TGI (MOLT-4 leukemia) of 75.6 µM. For the same molecule, the TGI (NCI-H522 lung) was 26.6 µM and the TGI (UO-31 renal) was greater than 100 µM.
NC(CSCc1ccc(I)cc1)C(=O)O (stereo unspecified) showed a TGI (CCRF-CEM leukemia) greater than 100 µM, a TGI (HOP-62 NSCLC) greater than 100 µM and a TGI (HOP-92 NSCLC) greater than 100 µM. The TGI (LOX IMVI melanoma) was greater than 100 µM, the TGI (MDA-MB-435) was greater than 100 µM and the TGI (MOLT-4 leukemia) was greater than 100 µM. The TGI (NCI-H460 lung) was greater than 100 µM, the TGI (NCI-H522 lung) was greater than 100 µM and the TGI (UO-31 renal) was greater than 100 µM.
CC[C@@H]1ON(C)[C@H]2CN(C)C(=O)[C@@H]12 gave a TGI (CCRF-CEM leukemia) greater than 100 µM, a TGI (HOP-62 NSCLC) greater than 100 µM and a TGI (HOP-92 NSCLC) greater than 100 µM. It also gave a TGI (LOX IMVI melanoma) greater than 100 µM, a TGI (MDA-MB-435) greater than 100 µM and a TGI (MOLT-4 leukemia) greater than 100 µM. It also gave a TGI (NCI-H460 lung) greater than 100 µM, a TGI (NCI-H522 lung) greater than 100 µM and a TGI (UO-31 renal) greater than 100 µM.
Molecule CC(=O)N1N=C(c2ccc3ccccc3c2O)CC1c1cccs1 (stereo unspecified) has a TGI (CCRF-CEM leukemia) greater than 100 µM, a TGI (HOP-62 NSCLC) greater than 100 µM and a TGI (HOP-92 NSCLC) greater than 100 µM. For the same molecule, the TGI (MDA-MB-435) was greater than 100 µM, the TGI (MOLT-4 leukemia) was 33.5 µM and the TGI (NCI-H460 lung) was greater than 100 µM. It also gave a TGI (NCI-H522 lung) of 75.1 µM, a TGI (SF-539 CNS) of 89.2 µM and a TGI (UO-31 renal) of 64.1 µM.
